Measurements taken from patent publication US10952976B2 (priority 2018, dated 2021).
“Also recorded” adds a separate entry of the source.

Columns and labels:
[1] = tested on: patients with Dravet syndrome; settings: add-on (adjunctive) agent; cited from earlier work
[2] = tested on: DBA/1 mice (audiogenic seizures, seizure-induced respiratory arrest); test: Reversal of FFA's anticonvulsant and S-IRA blocking effects by selective 5-HT receptor antagonists in DBA/1 mice; type: in vivo, mouse; settings: for reversal of FFA's S-IRA blocking effect: 30 min before AGSz; for reversal of S-IRA blocking effect of FFA (reduction in S-IRA incidence) / reversal of anticonvulsant effect of FFA (seizure severity, incidence of tonic seizures): antagonist dose not stated
5-HT2B receptor = 5-HT2B receptor (Homo sapiens, UniProt P41595); settings: cited from earlier work
5-HT2C receptor = biological target: T1, 5-HT2C receptor (Homo sapiens, UniProt P28335); settings: cited from earlier work
T1 sequence (P28335 33-458): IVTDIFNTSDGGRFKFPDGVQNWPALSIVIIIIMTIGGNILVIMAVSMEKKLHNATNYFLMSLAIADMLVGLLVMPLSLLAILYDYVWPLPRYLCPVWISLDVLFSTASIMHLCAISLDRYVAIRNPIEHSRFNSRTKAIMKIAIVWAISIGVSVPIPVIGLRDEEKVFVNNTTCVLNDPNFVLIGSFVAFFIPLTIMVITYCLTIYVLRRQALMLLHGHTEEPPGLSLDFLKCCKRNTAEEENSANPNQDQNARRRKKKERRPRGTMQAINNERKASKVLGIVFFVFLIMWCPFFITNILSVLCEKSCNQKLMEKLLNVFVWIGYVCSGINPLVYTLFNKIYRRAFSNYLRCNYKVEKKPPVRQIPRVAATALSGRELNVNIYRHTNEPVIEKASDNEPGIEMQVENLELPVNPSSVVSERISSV

[3] = tested on: DBA/1 mice (audiogenic seizures, seizure-induced respiratory arrest); test: Dose- and time-dependent effects of FFA on audiogenic seizures (AGSz) and S-IRA in DBA/1 mice; type: in vivo, mouse
Excerpt: These studies involved age matched (<80 days) male DBA/1 mice obtained from ENVIGO. […] Starting at postnatal day 23-25, the mice were primed and tested for consistent susceptibility to AGSz and S-IRA by presenting an intense acoustic stimulus, as described previously.
The typical seizure semiology in the DBA/1 mice begins with a wild running phase, followed by clonic-tonic seizures and then tonic hind-limb extension that immediately leads to S-IRA during post-ictal behavioral depression (PID). The onset of S-IRA was visually determined by the occurrence of respiratory failure following loss of the righting reflex, relaxation of the pinnae, and then a generalized loss of muscle tone. These behaviors are reliable indicators of imminent sudden death in DBA mice. […] The mice were placed in a supine position, and a polyethylene tube (4.4 mm external diameter) connected to the outflow of a rodent respirator (Harvard Apparatus 680), pumping one cc of room air at 200 strokes/min, was the placed over the nostrils, which produced observable displacement of the chest. […] The mice were monitored until they regained the righting reflex and then returned to their home cage. Video recordings of seizure behaviors and recovery were made for off-line evaluation and analysis, including the duration of PID, as indicated by time from muscle tone loss to return of the righting reflex.
The videos of seizure behaviors were analyzed visually, and the incidence (frequency) of AGSz, seizure severity, and incidence (frequency) of S-IRA following drug treatment were compared statistically to vehicle controls using the Chi-square, Mann-Whitney U or paired samples t-test with SPSS software. The ED50 was calculated using SigmaPlot 13 and Microsoft® Excel. The experimental protocols used in these studies were approved by the Laboratory Animal Care and Use Committee of Southern Illinois University School of Medicine, which are in accordance with National Institutes of Health guidelines for the care and use of laboratory animals. Measures to minimize animal usage as well as pain and discomfort were included in these procedures.
The incidence of S-IRA and tonic seizures were analyzed Chi-square test with a significance level set at p<0.05.

DBA mice = settings: cited from earlier work; for seizure-induced respiratory failure and death in DBA mice: dose-dependent manner
[4] = oral administration; cited from earlier work
[5] = in vivo; cited from earlier work

Chain of 5-HT2B receptor (P41595 whole entry): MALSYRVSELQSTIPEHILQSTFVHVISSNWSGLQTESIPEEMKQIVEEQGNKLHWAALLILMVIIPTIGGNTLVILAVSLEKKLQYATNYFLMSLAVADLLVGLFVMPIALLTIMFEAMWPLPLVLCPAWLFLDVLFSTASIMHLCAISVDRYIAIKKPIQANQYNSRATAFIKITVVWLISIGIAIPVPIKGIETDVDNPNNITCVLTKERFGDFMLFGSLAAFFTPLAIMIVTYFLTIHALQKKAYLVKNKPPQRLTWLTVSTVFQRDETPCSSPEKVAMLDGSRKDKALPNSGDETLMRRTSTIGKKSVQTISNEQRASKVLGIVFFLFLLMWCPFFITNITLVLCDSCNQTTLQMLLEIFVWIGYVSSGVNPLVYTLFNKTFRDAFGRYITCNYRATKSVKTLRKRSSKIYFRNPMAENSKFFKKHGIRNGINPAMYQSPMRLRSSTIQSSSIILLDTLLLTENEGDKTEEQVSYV

CCNC(C)Cc1cccc(C(F)(F)F)c1 (racemic) [FFA, 3-trifluoromethyl-N-ethylamphetamine]
seizure activity (frequency and/or severity) [1]: significantly reduced | action at the 5-HT4 receptor, concluded from reversal by GR125487 ([2]; conclusion from antagonist study in DBA/1 mice): agonist | affinity for 5-HT2B receptor (5-HT2B receptor): high affinity | affinity for 5-HT2C receptor (5-HT2C receptor): high affinity | incidence of S-IRA ([3]; FFA 5 mg/kg i.p.): not affected | incidence of S-IRA ([3]; FFA 10 mg/kg i.p., starting at 8 h, vs saline treated controls): significant reduction | incidence of S-IRA ([3]; FFA 15 mg/kg (n=73) vs saline (n=38), FIGS. 1C-1D): reduction | incidence of S-IRA ([3]; FFA 15 mg/kg i.p., starting at 8 h, vs saline treated controls): significant reduction | return of tonic AGSz and S-IRA susceptibility (time after FFA) ([3]; FFA 20 mg/kg): approximately 48 h | incidence of S-IRA ([3]; FFA 20 mg/kg i.p., starting at 8 h, vs saline treated controls): significant reduction | effect on S-IRA ([3]; FFA 10-20 mg/kg): blocking effect | mice with significant reduction in the incidence of S-IRA ([3]; FFA 10-20 mg/kg, 8 h time point (FIG. 1B)): 100% | incidence of tonic seizures ([3]; FFA i.p., dose not stated): significantly reduced | seizure severity / AGSz susceptibility ([3]; dose- and time-dependent): significantly reduced seizure severity or blocked AGSz susceptibility

COc1ccccc1N1CCN(CCN(C(=O)C2CCCCC2)c2ccccn2)CC1 [WAY100635]
reversal of FFA's effect (AGSz severity / S-IRA) ([2]; WAY100635 0.1-15 mg/kg): not effective at any dose tested

Cc1nc2sccn2c(=O)c1CCN1CCC(=C(c2ccc(F)cc2)c2ccc(F)cc2)CC1 [Ritanserin]
reversal of FFA's anticonvulsant effect against the severity of AGSz ([2]; Ritanserin 20 mg/kg): able to reverse; also recorded: block | reversal of FFA's anticonvulsant effect against the severity of AGSz ([2]; Ritanserin 10-20 mg/kg): able to reverse | reversal of FFA's S-IRA blocking effect ([2]; Ritanserin 10-20 mg/kg): not its S-IRA blocking effect | reversal of S-IRA blocking effect of FFA (reduction in S-IRA incidence) [2]: reversed | reversal of anticonvulsant effect of FFA (seizure severity, incidence of tonic seizures) [2]: reversed

COCCCC/C(=N\OCCN)c1ccc(C(F)(F)F)cc1 [fluvoxamine]
seizure-induced respiratory failure and death in DBA mice (DBA mice): prevent

CN[C@H]1CC[C@@H](c2ccc(Cl)c(Cl)c2)c2ccccc21 [sertraline]
seizure-induced respiratory failure and death in DBA mice (DBA mice): prevent

CNCC[C@@H](Oc1ccccc1C)c1ccccc1 [atomoxetine]
seizure-induced respiratory failure and death in DBA mice (DBA mice): prevent

CC1CCN(CC[C@H]2CCCN2S(=O)(=O)c2cccc(O)c2)CC1 [SB269970]
reversal of FFA's anticonvulsant effect against the severity of AGSz ([2]; SB269970 30 mg/kg and 40 mg/kg): able to reverse; also recorded: block | reversal of FFA's S-IRA blocking effect ([2]; SB269970 30 mg/kg and 40 mg/kg): not its S-IRA blocking effect | reversal of anticonvulsant effect of FFA (seizure severity, incidence of tonic seizures) [2]: reversed

CC[C@@H](c1cccc(O)c1)[C@@H](C)CN(C)C [Tapentadol]
duration of analgesia [4]: 4 to 6 h | onset of analgesia [4]: ≤ 32 min

CNCCC(Oc1ccc(C(F)(F)F)cc1)c1ccccc1 (stereo not drawn) [fluoxetine]
S-IRA in DBA/1 mice (DBA mice; acting via 5-HT3 receptors): can prevent | seizure-induced respiratory failure and death in DBA mice (DBA mice): prevent

CCC1(c2ccccc2)C(=O)NC(=O)NC1=O [Phenobarbital]
half-life [5]: 92 h

COc1ccc(C(CN(C)C)C2(O)CCCCC2)cc1 (stereo not drawn) [venlafaxine]
seizure-induced respiratory failure and death in DBA mice (DBA mice): prevent

Cc1nccn1CC1CCc2c(c3ccccc3n2C)C1=O (stereo not drawn) [Ondansetron]
reversal of FFA's effect (AGSz severity / S-IRA) ([2]; Ondansetron 1-3 mg/kg): not effective at any dose tested | reversal of FFA's effect (AGSz severity / S-IRA) ([2]; Ondansetron 2-3 mg/kg): not effective at any dose tested | reversal of S-IRA blocking effect of FFA (reduction in S-IRA incidence) [2]: did not reverse | reversal of anticonvulsant effect of FFA (seizure severity, incidence of tonic seizures) [2]: did not reverse
